Assay results taken from patent publication US20050153395A1, “Unique integrin binding site in connective tissue growth factor (CTGF)” (CHILDREN'S HOSPITAL INC., priority 2003, published 2005).

Legend:
[1] = target: integrin α5β1 (Homo sapiens, UniProt P05556+P08648); assay: Solid phase ELISA of integrin α5β1 binding; conditions: peptides 35 μM; EDTA 5 mM
Protocol: In a second approach, a solid phase binding assay was used in which CTGF1-4 or FN were individually coated onto microtiter wells that were subsequently incubated with purified integrin α5β1. The presence of immobilized integrin α5β1 was detected by ELISA using an anti-integrin α5β1 antibody similar to the methods described in Example 3 above. In addition, CTGF1-4 bound to integrin α5β1 in a dose-dependent manner, with maximal binding at 2 μg/ml CTGF. This level of CTGF1-4 (2 μg/ml) binding was the same as that elicited by 2 μg/ml FN, a well known ligand of integrin α5β1. In a similar experiment, 2 μg/ml of CTGF1-4;CTGF3-4 or CTGF4 were individually precoated onto microtiter wells. Using the solid-phase assay, integrin α5β1 bound to CTGF1-4, CTGF3-4 or CTGF4 See FIG. 5 (Panel B).
To directly analyze whether α5β1 integrin binds to CTGF4, microtiter wells coated with CTGF4 (2 μg/ml) or FN (4 μg/ml) were used in an ELISA assay to detect integrin binding, as described in Example 3. For these assays, 1 μg/ml integrin α5β1, alone or in the presence of 35 μM of P2peptide (CTGF[257-272]) and 35 μM of P5 peptide (CTGF [285-291]), were added to the precoated plates. […] The binding between CTGF4 and integrin α5 β1 was blocked by peptide P5 (CTGF [285-291]) or peptide P2 (CTGF[257-272]). […]

[2] = test system: hepatic stellate cells (HSC); assay: HSC adhesion assay on coated wells (CyQUANT fluorescence); assay type: cell-based, rat; conditions: for inhibition of CTGF1-4-mediated HSC adhesion: wells coated 2 μg/ml CTGF1-4; for inhibition of CTGF1-4-mediated HSC adhesion / inhibition of CTGF3-4-mediated HSC adhesion / inhibition of CTGF4-mediated HSC adhesion: EDTA 10 mM, GRGDsp 1 mM, Echistatin 2 μM; for inhibition of CTGF3-4-mediated HSC adhesion: wells coated 2 μg/ml CTGF3-4; for inhibition of CTGF4-mediated HSC adhesion: wells coated 2 μg/ml CTGF4, antibody/IgG 25 μg/ml; for inhibition of CTGF4-mediated HSC adhesion / inhibition of HSC adherence to CTGF[257-272]: heparin 2 μg/ml; for inhibition of HSC adherence to CTGF[257-272]: peptide-coated wells
Protocol: CTGF4 is known to be expressed in hepatic stellate cells (HSC) and to induce proliferation and extracellular matrix (ECM) production in these cells. (Williams et al., J Hepatol 32, 754-761, 2000; Paradis et al., Lab Invest 82, 767-774, 2002). The following experiments were carried out to determine if HSCs adhere to CTGF. HSCs were isolated from normal Sprague-Dowley rate by sequential perfusion with pronase/collagenase and purified by density gradient separation as described in Vyas et al. (Gastroenterology 109: 889-898, 1995).
The cells were subsequently detached using 1 mM EDTA PBS (137 mM NaCl, 2.7 mM KCl, 4.3 mM Na2HPO4, 1.4 mM KH2PO4, pH 7.3), washed twice in DMEM and resuspended in serum free medium containing 0.5% BSA. The cells-were plated (1.25×10^4 cells/well) in a 96 well plate coated with one of the following: 2 μg/ml CTGF isoform (CTGF1-4, CTGF3-4, CTGF4), 1 μg/ml laminin, or 4 μg/ml vitronectin and incubated for 20 minutes at 37° C. Subsequently the cells were washed with PBS and the adherent cells were fixed with 10% formalin and stained with CyQUANT GR dye/cell lysis buffer (Molecular Probes , Eugene, Oreg.) according to the manufacturer's instructions. The number of cells that adhered to CTGF isoforms or ECM protein was quantified by measuring the sample fluorescence intensity at Ex/Em: 480/520 nm using a micro-plate reader (CytoFluor™ 2350).
To determine if the CTGF-mediated HSC adhesion was carried out through integrin receptors, the experiment described above were carried out in the presence and absence of 10 mM EDTA. […] It is widely believed that Mn^2+ induces conformational shifts that mimic the physiological activation of β1 and β3 integrins (Roberts et al., J Biol Chem 278: 1975-1985, 2003, van der Pauw et al., J Periodontal Res 37: 317-323, 2002) as Mn^2+-induced activation leads to enhanced ligand-binding affinity and cell adhesion (Mould et al., J Biol Chem 277: 19800-19805, 2002, Loftus & Liddington J Clin Invest 100: S77-81, 1997, Lin et al., J Biol Chem 272: 14236-14243, […]).
Synthetic peptides GRGDsp (1 mM), GRGEsp (1 mM), Echistatin (2 μM) or vehicle buffer alone were added to the, HSC culture medium 30 minutes prior to plating.
In addition, adhesion assays as described in Example 1 were carried out in CTGF4 coated plates in the presence and absence of monoclonal antibody specific for αvβ3 (LM609).

[3] = test system: vascular endothelial cells, intestinal epithelial, and hepatic stellate cells; assay: Adhesion of cell types to 10 kDa CTGF; assay type: cell-based
Protocol: To confirm the functionality of residues 247-349 of SEQ ID NO: 1 (containing module 4 alone; denoted as CTGF4), this region of CTGF was produced as a maltose binding protein (MBP) fusion protein in E. coli as described in Ball et al., J Endocrinol; 176: R1-R7, 2003. […] HPLC-purified 10 kDa CTGF promoted 3T3 cell adhesion in a dose-dependent manner, with maximal binding at 8 ng/well. […] Also, the binding of all cell types to 10 kDa CTGF was reduced by EDTA treatment, though this effect was relatively modest in 3T3 cells. Thus, E coli-derived CTGF isoforms comprising essentially module 4 are intrinsically functional in the absence of the other constituent modules of CTGF.

[4] = test system: pancreatic stellate cells (PSC); assay: PSC adhesion assay on coated wells; assay type: cell-based, rat; conditions: for inhibition of PSC adhesion to CTGF4: 2 μg/ml CTGF4 coat, peptides 35 μM; for inhibition of PSC adhesion to CTGF4 / inhibition of PSC adhesion to CTGF1-4: antibodies 25 μg/ml, heparin 2 μg/ml
Text: Rat PSCs were isolated by a modification of the method described by Phillips et al., Gut; 52:677-82, 2003. Briefly, pancreatic tissue was digested in situ with 0.03% collagenase P (Roche, Indianapolis, Ind.) in HBSS by perfusion through the thoracic aorta. This protocol was approved by the Institutional Animal Care and Use Committee of Children's Research Institute, Columbus, Ohio. The tissue was pooled, minced with scissors, and then digested with 0.05% collagenase P, 0.02% protease XIV (Sigma, St. Louis), and DNase I (Roche, Indianapolis, Ind.) in HBSS. The resulting cell suspension was centrifuged in a 12% Optiprep gradient at 1400 g for 14 minutes. Stellate cells separated into a hazy band just above the interface of a the gradient and the aqueous buffer. This band was harvested, and the cells washed and resuspended in DMEM supplemented with 25 mM Hepes buffer, 10% FBS, and 100 U/ml penicillin in, 100 μg/ml streptomycin. The, cells were maintained at 37° C. in a humidified atmosphere of 5% CO2/95% air.
The ability of activated PSC to adhere to non-tissue culture plastic microtiter wells coated with recombinant CTGF1-4, CTGF3-4 or CTGF4 was investigated. The solid phase binding assay was carried out as described in Example 2. […] To assess the possibility that CTGF-mediated PSC adhesion involved cell surface integrins, the effect of divalent cations on cell adhesion was examined, as described in Example 2. […]
Because CTGF is a heparin-binding protein, this property was further investigated.
To identify the peptides that bind to PSCs, cell adhesion assays were carried out as described in Example 3.
To further investigate the peptide binding, P2 or P5 (10 μM) or vehicle buffer alone (no add) were added to PSC cell suspensions for 30 minutes at room temperature.

[5] = target: integrin αvβ3 (Homo sapiens, UniProt P05106+P06756); assay: Integrin αvβ3-CTGF immunoprecipitation / immunoblot; assay type: binding; conditions: 20 μM Echistatin
Chain of integrin αvβ3 (P06756 31-889 limits assumed, one chain of several): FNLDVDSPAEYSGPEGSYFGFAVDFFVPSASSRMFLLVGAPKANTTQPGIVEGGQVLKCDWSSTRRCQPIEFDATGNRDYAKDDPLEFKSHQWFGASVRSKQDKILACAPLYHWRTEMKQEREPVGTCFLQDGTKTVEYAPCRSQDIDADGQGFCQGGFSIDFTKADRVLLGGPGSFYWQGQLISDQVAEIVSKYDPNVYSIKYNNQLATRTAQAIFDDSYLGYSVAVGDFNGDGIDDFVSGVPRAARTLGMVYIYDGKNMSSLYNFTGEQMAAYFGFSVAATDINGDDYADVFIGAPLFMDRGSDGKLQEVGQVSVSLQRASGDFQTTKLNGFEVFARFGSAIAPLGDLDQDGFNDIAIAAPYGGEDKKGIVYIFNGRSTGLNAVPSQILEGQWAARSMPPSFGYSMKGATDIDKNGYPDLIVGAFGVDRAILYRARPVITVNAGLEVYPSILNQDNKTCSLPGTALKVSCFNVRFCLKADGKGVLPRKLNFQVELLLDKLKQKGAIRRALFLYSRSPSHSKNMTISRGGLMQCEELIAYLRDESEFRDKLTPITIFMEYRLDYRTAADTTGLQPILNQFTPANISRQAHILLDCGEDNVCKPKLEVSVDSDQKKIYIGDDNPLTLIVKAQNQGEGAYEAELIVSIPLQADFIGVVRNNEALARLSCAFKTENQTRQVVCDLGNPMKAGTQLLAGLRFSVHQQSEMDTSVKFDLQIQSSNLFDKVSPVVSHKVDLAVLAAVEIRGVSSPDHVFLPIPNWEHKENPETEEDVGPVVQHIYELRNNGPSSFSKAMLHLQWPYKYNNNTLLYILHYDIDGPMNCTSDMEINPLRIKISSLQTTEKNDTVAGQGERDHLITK
Chain of integrin αvβ3 (P06756 891-1048 partner limits assumed, one chain of several): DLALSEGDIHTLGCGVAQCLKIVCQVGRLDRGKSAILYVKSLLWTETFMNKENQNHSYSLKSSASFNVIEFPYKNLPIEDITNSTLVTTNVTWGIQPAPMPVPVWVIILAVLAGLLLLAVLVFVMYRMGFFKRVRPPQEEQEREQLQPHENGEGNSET
Protocol: To further characterize the interaction between CTGF4 and integrin αvβ3, each CTGF isoforms (CTGF1-4, CTGF3-4, CTGF4) was individually mixed with αvβ3, followed by immunoprecipitation with rabbit anti-CTGF polyclonal antibody and immunoblotting with anti-αvβ3. Human integrin αvβ3 (2 μg) and each individual CTGF isoform (4 μg) were incubated in 1 ml NP40 buffer with rocking at 4° C. for 2 hours. As a control, 20 μM Echistatin was added prior to adding the CTGF isoforms. Subsequently, polyclonal rabbit anti-CTGF antibody (1:100) or mouse IgG was added to the complex and the mixtures were further incubated at 4° C. for 16 hours. After incubation, 25 ,μl of Protein A was added to each mixture for 1 hour. The samples were separated on 8% SDS-polyacrylamide gels, and transferred onto nitrocellulose. The membrane was then incubated with anti-human αvβ3 monoclonal antibody (1:1000) diluted in TBS/Tween 20 (0.05%) containing 5% non-fat milk. Integrin αvβ3 bound similarly to all CTGF isoforms.

[6] = target: T1, β3 integrin (Homo sapiens, UniProt P05106); conditions: Gould et al. 1990; cited from earlier work
T1 sequence (P05106 27-788): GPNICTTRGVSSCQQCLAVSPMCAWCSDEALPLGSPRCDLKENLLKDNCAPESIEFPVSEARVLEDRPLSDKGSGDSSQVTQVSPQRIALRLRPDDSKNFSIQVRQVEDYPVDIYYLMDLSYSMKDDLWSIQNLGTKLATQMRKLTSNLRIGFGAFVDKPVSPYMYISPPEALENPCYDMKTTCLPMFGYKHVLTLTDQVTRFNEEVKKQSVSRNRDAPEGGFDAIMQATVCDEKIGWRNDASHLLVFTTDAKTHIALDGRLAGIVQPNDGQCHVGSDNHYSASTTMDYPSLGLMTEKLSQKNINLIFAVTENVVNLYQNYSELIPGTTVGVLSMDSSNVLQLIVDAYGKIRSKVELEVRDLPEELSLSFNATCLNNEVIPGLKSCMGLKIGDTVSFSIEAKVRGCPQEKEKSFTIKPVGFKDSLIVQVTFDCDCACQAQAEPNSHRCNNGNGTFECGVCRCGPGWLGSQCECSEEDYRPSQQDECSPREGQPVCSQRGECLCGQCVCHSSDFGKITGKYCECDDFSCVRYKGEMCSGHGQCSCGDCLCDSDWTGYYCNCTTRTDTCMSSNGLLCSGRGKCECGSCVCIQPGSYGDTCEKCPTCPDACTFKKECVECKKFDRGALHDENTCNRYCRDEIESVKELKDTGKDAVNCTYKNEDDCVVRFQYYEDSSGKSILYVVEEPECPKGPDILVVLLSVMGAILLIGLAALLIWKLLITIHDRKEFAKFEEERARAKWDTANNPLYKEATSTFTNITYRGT

[7] = test system: CTGF; assay: CTGF production by PSCs (immunoprecipitation); assay type: cell-based, rat; conditions: TGF-β1 20 ng/ml; P<0.01
[8] = test system: PSCs; assay: PSC DNA synthesis, [3H]thymidine incorporation; assay type: cell-based, rat; conditions: 24 hours; CTGF1-4 effect in 0.1% serum, not in serum-free medium
Protocol: To measure the effect of CTGF on cell proliferation, DNA synthesis was measured by ^3H incorporation in PSCs. The cells were incubated for 24 hours with 0.2 μCi [^3H] thymidine in each well (24-well plate). The incorporation of [^3H] thymidine into PSC DNA was determined using a scintillation counter after the cells had been washed with PBS, fixed with 10% methanol, treated with cold 5% trichloroacetic acid, and lysed in 0.3 N NaOH.

[9] = test system: CTGF promoter; assay: CTGF promoter luciferase reporter pCCN2-Luc in PSCs; assay type: cell-based, rat
Protocol: TGF-β1 is a well characterized transcriptional activator of CTGF in other cell types. To further examine the mechanism by which TGF-β1 and other fibrogenic stimulators could influence CTGF production in PSCs, CTGF promoter activity in PSCs was evaluated using the luciferase reporter, pCCN2-Luc, as described in Gao et al., (J Hepatol 2004;40:431-8).

[10] = test system: PSCs; assay: PSC chemotaxis (migration) assay in culture insert; assay type: cell-based, rat
Protocol: To examine whether CTGF plays a role in PSC migration, a chemotaxis assay was carried out in which the migratory behavior of PSCs in the upper chamber of a culture insert was assessed following addition of CTGF to the lower chamber. […] PSC migration was also promoted by FN, PDGF or TGF-β1.

Chain of integrin α5β1 (P08648 42-894 limits assumed): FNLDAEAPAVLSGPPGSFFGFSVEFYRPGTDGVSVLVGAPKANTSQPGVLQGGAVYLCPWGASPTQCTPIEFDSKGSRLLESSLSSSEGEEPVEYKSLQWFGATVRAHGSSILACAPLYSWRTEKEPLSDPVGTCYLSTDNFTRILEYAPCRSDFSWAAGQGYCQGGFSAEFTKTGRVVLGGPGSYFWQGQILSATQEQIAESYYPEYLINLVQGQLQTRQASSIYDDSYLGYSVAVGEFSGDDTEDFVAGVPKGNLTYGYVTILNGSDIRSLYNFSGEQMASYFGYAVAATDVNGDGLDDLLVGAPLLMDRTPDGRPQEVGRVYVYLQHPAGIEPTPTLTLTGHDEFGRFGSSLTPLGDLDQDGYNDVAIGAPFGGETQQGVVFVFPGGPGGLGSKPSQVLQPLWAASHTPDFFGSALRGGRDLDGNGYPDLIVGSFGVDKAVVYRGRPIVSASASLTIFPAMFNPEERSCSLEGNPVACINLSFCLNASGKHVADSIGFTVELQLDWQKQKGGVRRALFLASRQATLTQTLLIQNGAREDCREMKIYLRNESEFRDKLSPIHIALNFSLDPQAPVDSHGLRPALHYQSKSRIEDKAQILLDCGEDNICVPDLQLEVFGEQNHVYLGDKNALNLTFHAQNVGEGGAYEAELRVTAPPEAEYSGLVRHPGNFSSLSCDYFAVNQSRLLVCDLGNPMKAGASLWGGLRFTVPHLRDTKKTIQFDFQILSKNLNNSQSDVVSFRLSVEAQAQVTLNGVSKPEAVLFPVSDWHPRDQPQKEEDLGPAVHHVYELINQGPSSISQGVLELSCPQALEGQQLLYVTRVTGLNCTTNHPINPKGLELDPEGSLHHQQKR
Chain of integrin α5β1 (P08648 895-1049 partner limits assumed): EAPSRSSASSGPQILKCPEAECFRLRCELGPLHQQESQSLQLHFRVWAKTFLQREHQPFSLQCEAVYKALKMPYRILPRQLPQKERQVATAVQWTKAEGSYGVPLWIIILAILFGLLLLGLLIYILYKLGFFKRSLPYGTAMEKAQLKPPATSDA
Chain of integrin α5β1 (P05556 21-798): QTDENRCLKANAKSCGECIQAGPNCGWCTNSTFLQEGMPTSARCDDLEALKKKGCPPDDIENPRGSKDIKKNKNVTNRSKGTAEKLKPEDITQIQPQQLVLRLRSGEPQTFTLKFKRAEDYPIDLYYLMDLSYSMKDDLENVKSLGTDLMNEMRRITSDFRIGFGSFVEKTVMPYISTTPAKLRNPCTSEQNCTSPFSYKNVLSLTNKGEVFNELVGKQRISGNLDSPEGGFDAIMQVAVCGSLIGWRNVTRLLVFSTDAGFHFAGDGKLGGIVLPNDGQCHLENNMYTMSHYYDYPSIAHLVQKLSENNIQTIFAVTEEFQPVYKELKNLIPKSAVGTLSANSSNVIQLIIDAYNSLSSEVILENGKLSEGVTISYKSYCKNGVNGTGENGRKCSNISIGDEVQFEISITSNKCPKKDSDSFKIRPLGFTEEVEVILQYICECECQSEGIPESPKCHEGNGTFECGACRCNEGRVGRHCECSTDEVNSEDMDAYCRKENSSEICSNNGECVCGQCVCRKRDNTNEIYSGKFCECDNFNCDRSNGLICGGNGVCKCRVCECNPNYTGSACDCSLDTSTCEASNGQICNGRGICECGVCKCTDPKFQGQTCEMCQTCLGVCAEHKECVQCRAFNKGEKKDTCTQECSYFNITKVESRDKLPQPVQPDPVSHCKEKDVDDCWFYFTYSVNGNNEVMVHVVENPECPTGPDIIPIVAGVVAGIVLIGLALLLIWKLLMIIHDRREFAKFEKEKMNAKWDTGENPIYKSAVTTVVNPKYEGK

## O=C(O)CN(CCN(CC(=O)O)CC(=O)O)CC(=O)O [EDTA, reference compound]
[1]
  inhibition of binding between CTGF4 and integrin α5β1: blocked
[2]
  inhibition of CTGF1-4-mediated HSC adhesion: 50%
  inhibition of CTGF3-4-mediated HSC adhesion: 50%
  inhibition of CTGF4-mediated HSC adhesion: 90%
[3]; effect relatively modest in 3T3 cells
  binding of all cell types to 10 kDa CTGF after EDTA treatment: reduced
[4]; EDTA 5 mM
  inhibition of PSC adhesion to CTGF4: significantly decreased
  inhibition of PSC adhesion to CTGF3-4: significantly decreased
  inhibition of PSC adhesion to CTGF1-4: significantly decreased

## Echistatin (QCESGPCCRNCKFLKEGTICKRARGDDMDDYCNGKTCDCPRNPHKGPAT)
[5]
  competition for the binding of αvβ3 with CTGF4: fully competed
[2]
  inhibition of HSC adherence to CTGF[257-272]: 40%
  inhibition of CTGF1-4-mediated HSC adhesion: 58%
  inhibition of CTGF3-4-mediated HSC adhesion: 62%
  inhibition of CTGF4-mediated HSC adhesion: 69%
[6]
  effectiveness relative to short RGDX peptides: at least 500 times

## TGF-β1: transcriptional activator of CTGF
[7]
  CTGF1-4, CTGF3-4 and CTGF4 levels in cell lysates and conditioned medium: significantly increased
[8]
  PSC proliferation (DNA synthesis): did not induce proliferation
[9]; P<0.01 compared with no stimulation
  activity of pCCN2-Luc in PSC: significantly increased
[9]; P<0.05
  activation of pCCN2-Luc compared among four stimulators: strongest activation
[10]; substance in lower chamber
  PSC migration: promoted

## heparin
[10]; CTGF1-4 or CTGF4
  inhibition of PSC migration in response to CTGF: blocked
[2]
  inhibition of HSC adherence to CTGF[257-272]: abrogated
  inhibition of CTGF4-mediated HSC adhesion: completely abrogated
[2]; wells coated 4 μg/ml vitronectin
  inhibition of vitronectin-mediated HSC adhesion: little effect
[3]; 5 μg/ml heparin, each cell type incl. 3T3
  inhibition of binding of each cell type to 10 kDa CTGF: completely inhibited
[4]; EDTA 5 mM
  inhibition of PSC adhesion to CTGF4: blocked
  inhibition of PSC adhesion to CTGF1-4: blocked
[4]; fibronectin coat
  inhibition of FN-mediated PSC adhesion: little effect
